Data published in patent US8592407B2, “Pyrrolo[2,1-c][1,4] benzodiazepine derivatives with dithiocarbamate side chains and process for the preparation thereof” (Council of Scientific & Industrial Research, priority 2008, dated 2013).

Assays:
[1] = tested on: Ovarian panel; assay: NCI screen, panel average; format: cell-based, human; conditions: for LC50 (50% lethal concentration): Homo sapiens, read-out: Log10 LC50 (concentration in mol/L causing 50% lethality) (converted); for Log10 GI50 (concentration in mol/L): Ovarian, average of six to eight cell lines
[2] = tested on: HOP-92; assay: NCI in vitro cytotoxicity (SRB); format: cell-based; conditions: Homo sapiens; Non-smallcell lung HOP-92; 48 h exposure
[3] = tested on: OVCAR-3; assay: NCI in vitro cytotoxicity (SRB); format: cell-based; conditions: Homo sapiens
[4] = tested on: SK-OV-3; assay: NCI in vitro cytotoxicity (SRB); format: cell-based; conditions: Homo sapiens; Ovarian SK-OV-3; 48 h exposure
[5] = tested on: Colon panel; assay: NCI screen, panel average; format: cell-based, human; conditions: for Log10 GI50 (concentration in mol/L): Colon, average of six to eight cell lines; for LC50: Homo sapiens, read-out: Log10 LC50 (concentration in mol/L causing 50% lethality) (converted)
[6] = tested on: NCI-H522; assay: NCI in vitro cytotoxicity (SRB); format: cell-based; conditions: Homo sapiens
[7] = tested on: U251; assay: NCI in vitro cytotoxicity (SRB); format: cell-based; conditions: Homo sapiens, U-251; CNS U251; 48 h exposure
[8] = tested on: M14; assay: NCI in vitro cytotoxicity (SRB); format: cell-based; conditions: Homo sapiens; Melanoma M14; 48 h exposure
[9] = tested on: MDA-MB-468; assay: NCI in vitro cytotoxicity (SRB); format: cell-based; conditions: Homo sapiens
[10] = tested on: SF-539; assay: NCI in vitro cytotoxicity (SRB); format: cell-based; conditions: Homo sapiens; CNS SF-539; 48 h exposure
[11] = tested on: Melanoma panel; assay: NCI screen, panel average; format: cell-based, human; conditions: for LC50: Homo sapiens, read-out: Log10 LC50 (concentration in mol/L causing 50% lethality) (converted); for Log10 GI50 (concentration in mol/L): Melanoma, average of six to eight cell lines
[12] = tested on: UO-31; assay: NCI in vitro cytotoxicity (SRB); format: cell-based; conditions: Homo sapiens; Renal UO-31; 48 h exposure
[13] = tested on: SK-MEL-2; assay: NCI in vitro cytotoxicity (SRB); format: cell-based; conditions: Homo sapiens; Melanoma SK-MEL-2; 48 h exposure
[14] = tested on: Prostate panel; assay: NCI screen, panel average; format: cell-based, human; conditions: for CC50: Homo sapiens, read-out: Log10 LC50 (concentration in mol/L causing 50% lethality) (converted); for Log10 GI50 (concentration in mol/L): Prostate, average of six to eight cell lines
[15] = tested on: PC-3; assay: NCI in vitro cytotoxicity (SRB); format: cell-based; conditions: Homo sapiens; Prostate PC-3; 48 h exposure
[16] = tested on: Renal panel; assay: NCI screen, panel average; format: cell-based, human; conditions: for LC50 (concentration causing 50% lethality): Homo sapiens, read-out: Log10 LC50 (concentration in mol/L causing 50% lethality) (converted); for Log10 GI50 (concentration in mol/L): Renal, average of six to eight cell lines
[17] = tested on: MCF7; assay: NCI in vitro cytotoxicity (SRB); format: cell-based; conditions: Homo sapiens
[18] = tested on: calf thymus DNA (CT-DNA); assay: Thermal denaturation studies with duplex-form calf thymus DNA; format: binding; conditions: [PBD]:[DNA] 1:5, CT-DNA 100 μM, ligand 20 μM, pH 7.00; for ΔTm after incubation at 37° C. for 0 h: 0 h at 37° C.; for ΔTm after incubation at 37° C. for 18 h: 18 h at 37° C.
Method: Compounds have been subjected to thermal denaturation studies with duplex-form calf thymus DNA (CT-DNA) using an modification of a reported procedure (Newman, M. S. Carcinog-compr. Surv. 1976, 1, 203; (b) Hecht, S. S.; Loy, M.; Hoffman, Carcinog-compr. Surv. 1976, 1, 325). Working solutions in aqueous buffer (10 mM NaH2PO4/Na2HPO4, 1 mM Na2EDTA, pH 7.00+0.01) containing CT-DNA (100 μm in phosphate) and the PBD (20 μm) have been prepared by addition of concentrated PBD solutions in DMSO to obtain a fixed [PBD]/[DNA] molar ratio of 1:5. The DNA−PBD solutions have been incubated at 37° C. for 0 and 18 h prior to analysis. Samples have been monitored at 260 nm using a Beckman DU-800 spectrophotometer fitted with high performance temperature controller, and heated at 1° C. min^−1
in the 40-110° C. range. DNA helix[…]coil transition temperatures (Tm) have been obtained from the maxima in the d(A260)/dT derivative plots. Drug-induced alterations in DNA melting behavior are given by: ΔTm=Tm(DNA+PBD)−Tm (DNA alone), where the Tm value for the PBD-free CT-DNA is 69.1±0.01.

[19] = tested on: Non-small-cell-lung panel; assay: NCI screen, panel average; format: cell-based, human; conditions: for LC50: Homo sapiens, read-out: Log10 LC50 (concentration in mol/L causing 50% lethality) (converted); for Log10 GI50 (concentration in mol/L): Non-small-cell-lung, average of six to eight cell lines
[20] = tested on: TK-10; assay: NCI in vitro cytotoxicity (SRB); format: cell-based; conditions: Homo sapiens; Renal TK-10; 48 h exposure
[21] = tested on: HCT-15; assay: NCI in vitro cytotoxicity (SRB); format: cell-based; conditions: Homo sapiens; Colon HCT-15; 48 h exposure
[22] = tested on: SNB-19; assay: NCI in vitro cytotoxicity (SRB); format: cell-based; conditions: Homo sapiens; CNS SNB-19; 48 h exposure
[23] = tested on: MDA-MB-435; assay: NCI in vitro cytotoxicity (SRB); format: cell-based; conditions: Homo sapiens; Breast MDA-MB-435; 48 h exposure
[24] = tested on: SN12C; assay: NCI in vitro cytotoxicity (SRB); format: cell-based; conditions: Homo sapiens; Renal SN12C; 48 h exposure
[25] = tested on: SK-MEL-28; assay: NCI in vitro cytotoxicity (SRB); format: cell-based; conditions: Homo sapiens; Melanoma SK-MEL-28; 48 h exposure
[26] = tested on: LOX IMVI; assay: NCI in vitro cytotoxicity (SRB); format: cell-based; conditions: Homo sapiens
[27] = tested on: HT29; assay: NCI in vitro cytotoxicity (SRB); format: cell-based; conditions: Homo sapiens, HT-29; Colon HT29; 48 h exposure
[28] = tested on: NCI-H322M; assay: NCI in vitro cytotoxicity (SRB); format: cell-based; conditions: Homo sapiens; Non-smallcell lung NCI-H322M; 48 h exposure
[29] = tested on: OVCAR-8; assay: NCI in vitro cytotoxicity (SRB); format: cell-based; conditions: Homo sapiens
[30] = tested on: HCC-2998; assay: NCI in vitro cytotoxicity (SRB); format: cell-based; conditions: Homo sapiens; Colon HCC-2998; 48 h exposure
[31] = tested on: SK-MEL-5; assay: NCI in vitro cytotoxicity (SRB); format: cell-based; conditions: Homo sapiens; Melanoma SK-MEL-5; 48 h exposure
[32] = tested on: Ovary OVCAR-5; conditions: human
[33] = Non-smallcell lung NCI-H522, 48 h exposure
[34] = Breast MDA-MB-468, 48 h exposure
[35] = Melanoma LOX IMVI, 48 h exposure

COc1cc2c(cc1OCCCN1CCN(C(=S)SCCC(C#N)(c3ccccc3)c3ccccc3)CC1)N=C[C@@H]1CCCN1C2=O [Compound 12b, 3-cyano-3,3-diphenylpropyl 4-(3-[(11aS)-7-(methyloxy)-5-oxo-2,3,5,11a-tetrahydro-1H-benzo[e]pyrrolo[1,2-a][1,4]diazepin-8-yl]oxypropyl)hexahydro-1-pyrazinecarbodithioate]
LC50 (50% lethal concentration) [1]: 18600 nM | Log10 GI50 (concentration in mol/L) [1]: −6.03 mol/L | GI50 [2]: 1070 nM | GI50 ([3]; Ovarian OVCAR-3, 48 h exposure): 280 nM | GI50 ([3]; ovarian OVCAR-3): 280 nM | GI50 [4]: 2690 nM | Log10 GI50 (concentration in mol/L) [5]: −6.02 mol/L | LC50 [5]: 8510 nM | GI50 [6, 33]: 170 nM | GI50 ([6]; non-small cell lung NCI-H522): 170 nM | GI50 [7]: 390 nM | GI50 [8]: 1170 nM | GI50 ([9]; MDA-MB-468, breast MDA-MEI-468): 280 nM | GI50 [9, 34]: 280 nM | GI50 [10]: 1440 nM | LC50 [11]: 5500 nM | Log10 GI50 (concentration in mol/L) [11]: −5.94 mol/L | GI50 [12]: 1100 nM | GI50 [13]: 1160 nM | CC50 [14]: 2400 nM | Log10 GI50 (concentration in mol/L) [14]: −6.51 mol/L | GI50 [15]: 340 nM | LC50 (concentration causing 50% lethality) [16]: 4070 nM | Log10 GI50 (concentration in mol/L) [16]: −6.20 mol/L | GI50 ([17]; MCF7, breast MCF-7): 330 nM | GI50 ([17]; Breast MCF7, 48 h exposure): 330 nM | ΔTm after incubation at 37° C. for 0 h [18]: 2.0 °C | ΔTm after incubation at 37° C. for 18 h [18]: 4.0 °C | LC50 [19]: 11000 nM | Log10 GI50 (concentration in mol/L) [19]: −6.07 mol/L | GI50 [20]: 650 nM | GI50 [21]: 1810 nM | GI50 [22]: 1230 nM | GI50 [23]: 550 nM | GI50 [24]: 640 nM | GI50 [25]: 1520 nM | GI50 [26, 35]: 600 nM | GI50 ([26]; melanoma LOX IMVI): 600 nM | GI50 [27]: 870 nM | GI50 [28]: 1870 nM | GI50 ([29]; Ovarian OVCAR-8, 48 h exposure): 990 nM | GI50 ([29]; ovarian OVCAR-8): 990 nM | GI50 [30]: 1640 nM | GI50 [31]: 1180 nM

COc1cc2c(cc1OCCCCN1CCN(C(=S)SCCC(C#N)(c3ccccc3)c3ccccc3)CC1)N=C[C@@H]1CCCN1C2=O [Compound 12c, 3-cyano-3,3-diphenylpropyl 4-(4-[(11aS)-7-(methyloxy)-5-oxo-2,3,5,11a-tetrahydro-1H-benzo[e]pyrrolo[1,2-a][1,4]diazepin-8-yl]oxybutyl)hexahydro-1-pyrazinecarbodithioate]
LC50 (50% lethal concentration) [1]: 55000 nM | Log10 GI50 (concentration in mol/L) [1]: −5.82 mol/L | GI50 [2]: 1070 nM | GI50 ([3]; Ovarian OVCAR-3, 48 h exposure): 1200 nM | GI50 [4]: 2960 nM | Log10 GI50 (concentration in mol/L) [5]: −5.93 mol/L | LC50 [5]: 72400 nM | GI50 [6, 33]: 190 nM | GI50 [7]: 1110 nM | GI50 [8]: 1250 nM | GI50 [9, 34]: 490 nM | GI50 [10]: 1690 nM | LC50 [11]: 7410 nM | Log10 GI50 (concentration in mol/L) [11]: −5.90 mol/L | GI50 [12]: 590 nM | GI50 [13]: 1040 nM | CC50 [14]: 7240 nM | Log10 GI50 (concentration in mol/L) [14]: −5.99 mol/L | GI50 [15]: 690 nM | LC50 (concentration causing 50% lethality) [16]: 15100 nM | Log10 GI50 (concentration in mol/L) [16]: −6.05 mol/L | Preliminary in vitro cytotoxicity data [32]: 24% | GI50 ([17]; Breast MCF7, 48 h exposure): 430 nM | ΔTm after incubation at 37° C. for 0 h [18]: 2.0 °C | ΔTm after incubation at 37° C. for 18 h [18]: 2.1 °C | LC50 [19]: 38900 nM | Log10 GI50 (concentration in mol/L) [19]: −5.97 mol/L | GI50 [20]: 1260 nM | GI50 [21]: 1410 nM | GI50 [22]: 1670 nM | GI50 [23]: 1040 nM | GI50 [24]: 1160 nM | GI50 [25]: 1750 nM | GI50 [26, 35]: 690 nM | GI50 [27]: 1130 nM | GI50 [28]: 1400 nM | GI50 ([29]; Ovarian OVCAR-8, 48 h exposure): 1590 nM | GI50 [30]: 1570 nM | GI50 [31]: 1110 nM
